The source of these data is paper PMC10101933 (European journal of medicinal chemistry, 2023).

Experiment [1] relates to Nrf2 target genes (GSTM3, HMOX1 and NQO1). Briefly: RT-qPCR of Nrf2-ARE regulated genes in NCM460D cells. It is filed as cell-based. The settings on record: 100 μM; for induction of the Nrf2 target genes (HMOX1, GSTM3, NQO1), in words: vs GAPDH and HPRT housekeeping genes.
Experiment [2] concerns the target T1, Keap1 Kelch domain protein (Homo sapiens, UniProt Q14145). Briefly: Time-resolved fluorescence resonance energy transfer. It is filed as binding.
Experiment [3] addresses T1, Keap1 Kelch domain protein. As to the kind of experiment: Fluorescence polarization. It is filed as binding. On the technique in general: Polarisation of emitted light reports the rotation of a fluorescent probe.

For orientation: IC50 means the concentration at which inhibition is half-maximal. Low readings indicate greater potency, high ones weaker potency.

T1 sequence (Q14145 321-609 limits assumed): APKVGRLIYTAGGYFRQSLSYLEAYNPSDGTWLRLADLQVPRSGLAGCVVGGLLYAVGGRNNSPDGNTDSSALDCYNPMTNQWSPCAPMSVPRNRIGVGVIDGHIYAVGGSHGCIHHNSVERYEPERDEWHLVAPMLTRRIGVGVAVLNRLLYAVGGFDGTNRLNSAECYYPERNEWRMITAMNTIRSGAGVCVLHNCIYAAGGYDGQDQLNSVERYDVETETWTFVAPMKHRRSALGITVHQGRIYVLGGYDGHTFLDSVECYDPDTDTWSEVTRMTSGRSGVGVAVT

For the compound `COc1ccc(-c2cc(N(CC(=O)O)S(=O)(=O)c3ccc(OC)cc3)c3ccccc3c2N(CC(=O)O)S(=O)(=O)c2ccc(OC)cc2)cc1` [Compound 12b, 2,2’-((2-(4-Methoxyphenyl)naphthalene-1,4-diyl)bis(((4-methoxyphenyl)sulfonyl)azanediyl))diacetic acid], the “induction of the Nrf2 target genes (HMOX1, GSTM3, NQO1), in words” value (shortened to “induction of the Nrf2 target genes”) in experiment [1] is recorded as “significant induction”. For the compound `COc1ccc(S(=O)(=O)N(CC(=O)O)c2cc(-c3ccc(N4C(=O)c5ccccc5C4=O)cc3)c(N(CC(=O)O)S(=O)(=O)c3ccc(OC)cc3)c3ccccc23)cc1` [Compound 12d, 2,2’-((2-(4-(1,3-Dioxoisoindolin-2-yl)phenyl)naphthalene-1,4-diyl)bis(((4-methoxyphenyl)sulfonyl)azanediyl))diacetic acid], in experiment [1], the “induction of the Nrf2 target genes” value was “significant induction”. On to `COc1ccc(S(=O)(=O)N(CC(N)=O)c2cc(CCC(=O)O)c(N(CC(N)=O)S(=O)(=O)c3ccc(OC)cc3)c3ccccc23)cc1` [Compound 17a, 3-(1,4-Bis((N-(2-amino-2-oxoethyl)-4-methoxyphenyl)sulfonamido)naphthalen-2-yl)propanoic acid], for which, in experiment [2] (as indicated by TR-FRET IC50 and Ki), the “fold decrease in potency relative to 2a” value came to 3 fold. Turning to `COc1ccc(S(=O)(=O)N(CC(=O)O)c2cc(-c3ccc(C#N)cc3)c(N(CC(=O)O)S(=O)(=O)c3ccc(OC)cc3)c3ccccc23)cc1` [Compound 12c, 2,2’-((2-(4-Cyanophenyl)naphthalene-1,4-diyl)bis(((4-methoxyphenyl)sulfonyl)azanediyl))diacetic acid], in experiment [1], the “induction of the Nrf2 target genes” value is listed as “no induction”. Take `COc1ccc(S(=O)(=O)N(CC(=O)O)c2cc(CCC(N)=O)c(N(CC(=O)O)S(=O)(=O)c3ccc(OC)cc3)c3ccccc23)cc1` [Compound 21, 2,2’-((2-(3-Amino-3-oxopropyl)naphthalene-1,4-diyl)bis(((4-methoxyphenyl)sulfonyl)azanediyl))diacetic acid]: the “fold drop in inhibitory activity vs 2a” value in experiment [2] (as indicated by the Ki value from the TR-FRET assay) is ~2 fold. For the compound `COc1ccc(S(=O)(=O)N(CC(=O)O)c2cc(CCCN3C(=O)c4ccccc4C3=O)c(N(CC(=O)O)S(=O)(=O)c3ccc(OC)cc3)c3ccccc23)cc1` [Compound 24a, 2,2’-((2-(3-(1,3-Dioxoisoindolin-2-yl)propyl)naphthalene-1,4-diyl)bis(((4-methoxyphenyl)sulfonyl)azanediyl))diacetic acid], in experiment [1], the “mRNA levels of GSTM3, HMOX1 and NQO1, fold vs vehicle (DMSO) control” value is 2.4–11.7 fold; the “induction of the Nrf2 target genes” value is reported as “significant induction”. The “Ki value (in words)” value in experiment [2] (from TR-FRET assay) was “subnanomolar range”. For the compound `COc1ccc(S(=O)(=O)N(CC(=O)O)c2cc(CCC(=O)N3CCOCC3)c(N(CC(=O)O)S(=O)(=O)c3ccc(OC)cc3)c3ccccc23)cc1` [Compound 17c, 2,2’-((2-(3-Morpholino-3-oxopropyl)naphthalene-1,4-diyl)bis(((4-methoxyphenyl)sulfonyl)azanediyl))diacetic acid], the “induction of the Nrf2 target genes” value in experiment [1] is reported as “significant induction”. In addition, the “fold increase in binding affinity vs 17b” value in experiment [2] (as indicated by the TR-FRET Ki) turned out to be 2 fold.

Take `COc1ccc(S(=O)(=O)N(CC(=O)O)c2cc(CCCN(C)Cc3ccccc3)c(N(CC(=O)O)S(=O)(=O)c3ccc(OC)cc3)c3ccccc23)cc1` [Compound 24b, 2,2’-((2-(3-(Benzyl(methyl)amino)propyl)naphthalene-1,4-diyl)bis(((4-methoxyphenyl)sulfonyl)azanediyl))diacetic acid]: the IC50 in experiment [3] turned out to be 276 ± 17 nM. In addition, the “fold reduction in potency vs 24a” value in experiment [2] (TR-FRET assay) is recorded as “more than 20 fold”.
